{"source": "patent US7666644B2", "about": "“Glyphosate-N-acetyltransferase (GAT) genes” (Verdia, Inc., priority 2004, dated 2010)", "molecules": {"B1": {"name": "B6: native GAT enzyme isolated from B. licheniformis strain B6, SEQ ID NO:7 (protein)", "chain": "MIEVKPINAEDTYEIRHRILRPNQPLEACKYETDLLGGTFHLGGYYRDRLISIASFHQAEHSELEGQKQYQLRGMATLEGYREQKAGSTLIRHAEELLRKKGADLLWCNARTSVSGYYKKLGFSEQGGVYDIPPIGPHILMYKKLT", "modifications": "Unidentified microorganism derived from soil sample.; B6 GAT"}, "B2": {"name": "20-30C6: evolved GAT enzyme, SEQ ID NO:683 (protein)", "chain": "MIEVKPINAEDTYELRHRVLRPNQPIEACMFESDLLRGAFHLGGFYGGKLISVASFHQAEHTELQGQKQYQLRGVATLEGYREQKAGSSLVKHAEEILRKRGADILWCNARTSASGYYKKLGFSEQGEVFDTPPVGPHILMYKRIT", "modifications": "D_GE002283_GAT20-30C6"}}, "key": {"[1]": {"test_system": "Nicotiana tabacum L. Xanthi leaf explants", "test": "Tobacco shoot regeneration with glyphosate selection after Agrobacterium-mediated transformation", "type": "cell-based", "conditions": "explants lacking a GAT gene", "description": "Agrobacterium-mediated transformation of plant cells occurs at low efficiencies. To allow propagation of transformed cells while inhibiting proliferation of non-transformed cells, a selectable marker is needed. Antibiotic markers for kanamycin and hygromycin and the herbicide modifying gene bar, which detoxifies the herbicidal compound phosphinothricin, are examples of selectable markers used in plants (Methods in Molecular Biology, 1995, 49:9-18). […] An evolved GAT gene (0—5B8), SEQ ID NO:190, was cloned between a plant promoter (enhanced strawberry vein banded virus) and a […] terminator and introduced into the T-DNA region of the binary vector pMAXY3793 suitable for transformation of plant cells via Agrobacterium tumefaciens EHA105 as shown in FIG. 12. A screenable GUS marker was present in the T-DNA to allow confirmation of transformation. Transgenic tobacco shoots were generated using glyphosate as the only selecting agent.\nAxillary buds of Nicotiana tabacum L. Xanthi were subcultured on half-strength MS medium with sucrose (1.5%) and Gelrite (0.3%) under 16-h light (35-42 μEinsteins m^−2 s^−1, cool white fluorescent lamps) at 24° C. every 2-3 weeks. Young leaves were excised from plants after 2-3 weeks subculture and were cut into 3×3 mm segments. A. tumefaciens EHA 105 was inoculated into LB medium and grown overnight to a density of A600=1.0. […]"}, "[2]": {"target": "T1, Bacillus licheniformis strain B6 glyphosate-N-acetyltransferase (GAT), native, SEQ ID NO:7 (Bacillus paralicheniformis, UniProt A0AAW6KBE1)", "T1 construct": "untagged", "test": "Apparent KM and kcat of purified GAT (Example 2)", "type": "biochemical", "quoted_text": "Lysis of the cells was effected by the addition of 1 ml of the following buffer to 0.2 g of cells: 25 mM HEPES, pH 7.3, 100 mM KCl and 10% methanol (HKM) plus 0.1 mM EDTA, 1 mM DTT, 1 mg/ml chicken egg lysozyme, and a protease inhibitor cocktail obtained from Sigma and used according to the manufacturer's recommendations. After 20 minutes incubation at room temperature (e.g., 22-25° C.), lysis was completed with brief sonication. The lysate was centrifuged and the supernatant was desalted by passage through Sephadex G25 equilibrated with HKM. Partial purification was obtained by affinity chromatography on CoA Agarose (Sigma). The column was equilibrated with HKM and the clarified extract was allowed to pass through under hydrostatic pressure.\nPurification to homogeneity was obtained by gel filtration of the partially purified protein through Superdex 75 (Pharmacia).\nInitial reaction rates were determined using mass spectrometric detection of N-acetyl glyphosate. Five μl were repeatedly injected into the instrument and reaction rates were obtained by plotting reaction time vs area of the integrated peak (FIG. 6)."}, "[3]": {"test_system": "native or low activity GAT enzymes (glyphosate-N-acetyltransferase)", "test": "Kinetics typical of native or low activity GAT enzymes (Example 4)", "type": "biochemical"}, "[4]": {"test_system": "high activity GAT enzymes (glyphosate-N-acetyltransferase)", "test": "Kinetics typical of high activity GAT enzymes (Example 5)", "type": "biochemical"}, "[5]": {"test_system": "GAT polypeptide (glyphosate-N-acetyltransferase), SEQ ID NO:445", "test": "Standard spectrophotometric kcat and KM determination (Example 7)", "type": "biochemical", "conditions": "20 mM HEPES pH 6.8, 10% ethylene glycol, 0.2 mM acetyl CoA, about 23° C.", "procedure": "(§1) KM was calculated from the initial reaction rates obtained from concentrations of glyphosate ranging from 0.125 to 10 mM, using the Lineweaver-Burke transformation of the Michaelis-Menten equation. kcat/KM was determined by dividing the value determined for kcat by the value determined for KM."}, "[6]": {"test_system": "GAT 20-30C6 (SEQ ID NO: 683) variant D34A", "test": "GAT kinetics, 0 KCl, Bradford (Example 20, Table 12)", "type": "biochemical", "conditions": "Bradford protein assay", "procedure": "as §1\n(§2) The amino acids aspartic acid (Asp, D), histidine (His, H) and cysteine (Cys, C) are known to be associated with the active sites of various acetyltransferase enzymes. To determine if any such residues play a role in GAT activity, all D, C, and H residues of GAT20-30C6 (SEQ ID NO:683) were individually mutated to alanine (Ala, A) and the mutated enzymes assayed for N-acetylglyphosate activity."}, "[7]": {"test_system": "GAT 20-30C6 (SEQ ID NO: 683) variant H138A", "test": "GAT kinetics, 0 KCl, Bradford (Example 20, Table 12)", "type": "biochemical", "conditions": "Bradford protein assay", "procedure": "as §1, §2"}, "[8]": {"test_system": "GAT 20-30C6 (SEQ ID NO: 683) variant H138R", "test": "GAT kinetics, 0 KCl, Bradford (Example 20, Table 12)", "type": "biochemical", "conditions": "Bradford protein assay", "procedure": "as §1, §2"}, "[9]": {"test_system": "GAT 20-30C6 (SEQ ID NO: 683) variant H41A", "test": "GAT kinetics, 0 KCl, Bradford (Example 20, Table 12)", "type": "biochemical", "conditions": "Bradford protein assay", "procedure": "as §1, §2"}, "[10]": {"test_system": "GAT 20-30C6 (evolved glyphosate-N-acetyltransferase), SEQ ID NO: 683", "test": "GAT kinetics, 0 KCl, Bradford (Example 20, Table 12)", "type": "biochemical", "conditions": "Bradford protein assay", "procedure": "as §1, §2"}, "[11]": {"test_system": "GAT 20-30C6 (SEQ ID NO: 683) variant H138S", "test": "GAT kinetics, 0 KCl, Bradford (Example 20, Table 12)", "type": "biochemical", "conditions": "Bradford protein assay"}, "[12]": {"target": "non-native GAT polypeptide 25-8H7 (glyphosate-N-acetyltransferase), SEQ ID NO: 907 (Bacillus licheniformis, UniProt Q65LG7, E119R/E14D/E65Q/E67K/E68K/G37R/G38S/I132T/I135V/I15L/I19V/I53V/I91V/K101R/K144R/K58Q/L105M/L106I/L145I/L26I/L36T/L97I/M75V/R47G/R92K/T33S/T89S/V114A/Y130F/Y31F/Y45F)", "sequence (Q65LG7 entry or part of it with the stated changes)": "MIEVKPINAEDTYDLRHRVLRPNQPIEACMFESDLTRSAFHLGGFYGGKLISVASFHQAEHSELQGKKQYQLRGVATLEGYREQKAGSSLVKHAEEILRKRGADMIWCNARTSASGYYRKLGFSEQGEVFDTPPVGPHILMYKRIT", "test": "GAT activity with respect to glyphosate, aspartate and serine (Example 29, Table 21)", "conditions": "25 mM Hepes, pH 6.8, 10% ethylene glycol"}, "[13]": {"test": "Transfer of the propionyl group from propionyl CoA to glyphosate, DTNB detection", "type": "biochemical", "conditions": "1 mM propionyl CoA, 5 mM glyphosate or no glyphosate, 30 minutes", "procedure": "The ability of GAT variants (B6 (SEQ ID NO:7), 0—6D10 (SEQ ID NO:448), 17-15H3 (SEQ ID NO:601), and 20-8H12c (SEQ ID NO:817)) to transfer the propionyl group from propionyl CoA to glyphosate was tested in reaction mixtures containing 5 mM glyphosate or no glyphosate. Propionyl CoA was present at 1 mM. After 30 minutes the reactions were terminated and the presence of free […] was determined by the addition of DTNB."}, "[14]": {"test": "GAT activity with substrate phospho-L-serine (DTNB)", "type": "biochemical", "procedure": "GAT activity of several GAT polypeptides of the present invention was evaluated with respect to a number of amino acid substrates. The GAT polypeptide, AcCoA and amino substrate were incubated in 25 mM Hepes, pH 6.8, 10% ethylene glycol in the wells of a 96-well polystyrene plate. After 30 minutes, the reactions were stopped by the addition of 30 μl of 10 mM 5,5′-dithiobis-2-nitrobenzoate (DTNB) in 500 mM Tris, pH 7.5. After 2 minutes, absorbance was read at 412 nm in a Spectramax Plus plate reader (Molecular Devices, Sunnyvale, Calif.)."}, "[15]": {"test": "Kinetics of D, C, H residue mutants of GAT20-30C6", "type": "biochemical", "conditions": "0 KCl; Bradford protein assay", "description": "as §2"}}}
{"molecule": "O=C(O)CNCP(=O)(O)O", "note": "[Glyphosate, N-phosphonomethylglycine]", "values": [{"measurement": "Glyphosate concentrations that completely inhibited any shoot formation", "setting": "[1]", "result": "greater than 20 uM"}]}
{"molecule": "O=C(O)CNCP(=O)(O)O", "note": "[glyphosate, N-phosphonomethylglycine]", "values": [{"measurement": "kcat", "setting": "[2]; from Vmax at known enzyme concentration, 5 mM glyphosate, varying Acetyl CoA", "result": 0.1, "unit": "s⁻¹"}, {"measurement": "Km", "setting": "[2]; read-out: KM for glyphosate, apparent, saturating (200 μM) Acetyl CoA, 5 mM morpholine pH 7.7, 20% ethylene glycol", "result": "2900 ± 200", "unit": "µM"}, {"measurement": "kcat", "setting": "[3]", "result": "approximately 1 min^−1"}, {"measurement": "Km", "setting": "[3]; read-out: KM for glyphosate", "result": "1500 to 10000", "unit": "µM"}, {"measurement": "Km", "setting": "[4]", "result": "< 100", "unit": "µM"}, {"measurement": "kcat", "setting": "[4]", "result": "up to 400 min^−1"}, {"measurement": "Km", "setting": "[5]", "result": 500, "unit": "µM"}, {"measurement": "kcat", "setting": "[5]", "result": 5.37, "unit": "s⁻¹"}, {"measurement": "Km", "setting": "[6]", "result": 2330, "unit": "µM"}, {"measurement": "kcat", "setting": "[6]", "result": 2.12, "unit": "s⁻¹"}, {"measurement": "kcat", "setting": "[7]", "result": "<0.00033", "unit": "s⁻¹"}, {"measurement": "Km", "setting": "[8]", "result": 17800, "unit": "µM"}, {"measurement": "kcat", "setting": "[8]", "result": 0.738, "unit": "s⁻¹"}, {"measurement": "Km", "setting": "[9]", "result": 4800, "unit": "µM"}, {"measurement": "kcat", "setting": "[9]", "result": 3.47, "unit": "s⁻¹"}, {"measurement": "Km", "setting": "[10]", "result": 182, "unit": "µM"}, {"measurement": "kcat", "setting": "[10]", "result": 6.43, "unit": "s⁻¹"}, {"measurement": "Km", "setting": "[11]", "result": 7100, "unit": "µM"}, {"measurement": "kcat", "setting": "[11]", "result": 0.0892, "unit": "s⁻¹"}]}
{"molecule": "N[C@@H](CO)C(=O)O", "note": "[Serine, L-serine]", "values": [{"measurement": "kcat ± SE", "setting": "[12]", "result": "6.47 ± 0.308", "unit": "s⁻¹"}]}
{"molecule": "B1", "values": [{"measurement": "glyphosate-dependent hydrolysis of propionyl CoA", "setting": "[13]", "result": "showed glyphosate-dependent hydrolysis of propionyl CoA"}, {"measurement": "activity with phospho-L-serine compared with glyphosate", "setting": "[14]", "result": "about 2 times"}]}
{"molecule": "B2", "values": [{"measurement": "% kcat/Km of 20-30C6", "setting": "[15]", "result": 100, "unit": "%"}]}
